The target in one series is TagK-TF^His6 (Bacillus licheniformis, UniProt Q65EY9). The experiment in a line: coupled assay LacD/TPI/G3PDH, NADH oxidation at […] nm. The format is biochemical. The following applies: read-out: % residual activity at 10 mM.
Substrate in the series “purified protein”: O=C(COP(=O)(O)O)[C@@H](O)[C@@H](O)[C@H](O)CO
The experiment in a line: purified protein. The format is biochemical, Bacillus licheniformis. The following applies: 2 mM ATP, 10 mM MgCl2, 50 mM Tris-HCl pH 8.0, 25 °C.

For three molecules, remaining activity, Km and kcat results are on record in article PMC4511154 (Journal of molecular microbiology and biotechnology, 2015).

Usually Km stands for the concentration of substrate that gives half-maximal velocity. Broadly, the kcat is the number of substrate molecules converted per active site and unit of time at saturation.

As for `O=P(O)(O)OC[C@H]1OC(O)(CO)[C@@H](O)[C@@H]1O` (stereo partly drawn) [Fru-6P, D-fructose 6-phosphate], the remaining activity at 10000 µM at TagK-TF^His6 amounted to 69%. Same read-out and setting: then `O=P(O)(O)OC[C@H]1OC(O)(CO)[C@@H](O)[C@H]1O` (stereo partly drawn) [Tag-6P, D-tagatose-6-phosphate], with 43%.

B1: TagK-TF^His6 (Bacillus licheniformis DSM 13 = ATCC 14580) (protein)
chain: MIYTCTMNTAVDLFVETDELLPDVVNRTKDEDYQPNGKGVNISFMLKRLGLDNTALGFTGGFTGRFIENELLNEKIVTDFVEVEGISRINIFINSTREFKIVNKGPLISEARKQELINKIRQIPPGRFLFISGSLPRGVPDDMYLSLSEIAAENKLKLILDISSPVLLDCLSYHPYLIKPNEQELAAFFSRKKALSEEEIIHCGKELLDRGAERVLISRGKDGALYLDRQRTLKATAAKGKVVNTACAGDAMLAVFVGKQELGCSVPEALRHASAAGSLTAFSKGLGDVSKLDQTASQIQITHL
Take B1: in the series “purified protein”, the Km is reported as 3.2 ± 0.4 mM and the kcat was determined as 0.44 ± 0.01 s⁻¹.
